Assay results: patent US20250114350A1, “INHIBITORS OF […] AS ANTIFUNGAL AGENTS” (Regents of the University of Minnesota, priority 2023, published 2025)
Values after ≈ are worked out from the molar mass of the structure shown. “Also recorded” adds a separate entry of the source. Where two headings read alike, the source gives them in different places.

Key:
CnFTase = CnFTase (Cryptococcus neoformans, UniProt J9VSJ6+T2BPA1); assay: CnFTase steady-state kinetics fit to competitive/uncompetitive/mixed inhibition models
Experimental: (§2) CnFTase activity assay. […] Final CnFTase concentrations (from 5× or 10× stocks in 20 mM Tris-HCl pH7.5, 20 mM NaCl, 5 μM ZnCl2, 1 mM TCEP, 1 mg/mL BSA): A, 20 nM; B: 4.4, 6.7, 10 nM triplets. […] For experiments that included phosphate, pH 7.5 stock was added to the desired final concentration. […] Data for determining ^1μMIC50 values (condition A) was collected in triplicate. Initial rates, vo, were extracted by fitting a straight line to the initial to tmax seconds of the reaction progress curves, where tmax values were selected by inspection and entered into curator tables for automated analysis. 1μMIC50 were determined by fitting a single-site Langmuir ligand-binding isotherm to the dependence of vo on inhibitor concentration (2, see below). All other experiments (condition B) all other experiments (condition B) used three different CnFTase concentrations, collecting progress curves as a function of FPP, inhibitor, and phosphate concentrations. The resulting triplet of progress curves was used to extract vo values automatically by minimizing
where χk^2 is the squared difference of the calculated and observed emissions in the k^th iteration of the minimizer, fi the initial fraction (constrained in the interval [0.5,1]) of the T time points of the progress curve, Di the dilution factor of the i^th progress curve (0.44:0.66:1 for condition B), S0ik the fluorescence emission intensity of the i^th progress curve at t=0 at the k^th (this value is refined individually using a one-dimensional golden section search^52 with fi and v0 values of the k−1 iteration), and ^obsSji, the observed intensity of the i^th progress curve at the j^th time point. The target function 1 is minimized using conjugate gradients with vo and fi as the degrees of freedom. The resulting rates were then fit to binding polynomials describing the inhibition mechanism (5-13, see below).
Binding polynomials for inhibition models. The initial steady-state rates of a reaction involving a single-substrate x, and inhibitor y are given by
Three binding polynomials were used:
where Ka, KC, and KU are the affinities of the enzyme for substrate, competitive inhibitor, and uncompetitive inhibitor, respectively.
Solvers for non-ideal conditions. In non-ideal conditions 9 is false, and the total protein concentration needs to be included as a degree of freedom, requiring the roots of the following multivariate polynomial to be found (see below for derivation):

[1] = test system: J774A.1 macrophage-like murine cells; settings: mouse, 24 h
Experimental: Macrophage cytotoxicity assays. […] 2 μL of the serially diluted compound were transferred to a 96-well plate containing 200 μL DMEM (100× dilution). J774A.1, a macrophage-like murine cell line, was incubated in DMEM (Dulbecco's Modified Eagle Medium, Sigma-Aldrich) to 70% confluency, harvested, washed in PBS, then transferred to black, clear-bottom 96-well plates (Greiner) at 10^5 cells/well. Plates were incubated overnight at 37° C. and 5% CO2. The macrophage medium covering the J774A.1 monolayer was replaced with 100 μL of DMEM containing the serially diluted inhibitors (50× dilution) and incubated for 24 h at 37° C. and 5% CO2. Macrophage viability was assessed at 24 h by the addition of 10% AlamarBlue and incubating for 3 h at 37° C. and 5% CO2 prior to fluorescence measurement (FLUORStar Optima plate reader). Assays were performed in duplicate.

[2] = target: CnFTase (C. neoformans farnesyl transferase, α/β heterodimer) (Cryptococcus neoformans, UniProt J9VSJ6+T2BPA1); assay: CnFTase activity assay: farnesylation of a dansylated (fluorescent) peptide, inhibitor concentration giving half-maximal enzyme rates at 1 μM FPP (1μMIC50); settings: read-out: CnFTase IC50 (1μMIC50), condition A: 20 nM CnFTase, dansyl-GCVVM 0.62 μM, Tris-HCl pH 7.5, ZnCl2 12.5 μM, 2.5% DMSO, room temperature, triplicate
Experimental: as §2
Single-site binding isotherms. Signals, S, resulting from a binding reaction were fit to
where α and β are the baselines associated with the apo-protein and its ligand complex, respectively, and y fractional occupancy of the binding site
If x is an inhibitor concentration, then IC50=Ka^−1. […] In general, baseline signals, σ, (α or β) can be constant, or linear functions of ligand concentration x

mammalian FTase = mammalian FTase (Homo sapiens, UniProt P49354+P49356); assay: Inhibition of mammalian FTase; format: biochemical
[3] = test system: Gfp-Ras1 localization in C. neoformans; assay: Ras1 cellular localization by fluorescent microscopy; format: cell-based, Cryptococcus neoformans; settings: sub-lethal concentrations; 0.78 μM (sub-inhibitory)
Experimental: (§1) FIG. 3. CnFTase is the in vivo target of 2f. (A) Ras cellular mislocalization, assessed by epifluorescent microscopy (1000×). Bar=10 μm. Top. […] Bottom. Control patterns of Ras localization with wild-type (left) and ram1Δ deletion (right) strains expressing mCherry-Ras1. […] A C. neoformans strain transformed with the galactose-regulated pGAL7-RAM1 over-expression construct was incubated with glucose (uninduced, bottom), and galactose (induced, top). Antifungal activity was assessed by the relative size of the zone of fungal growth inhibition surrounding sterile discs impregnated with 10 μL of 20 mM 2f dissolved in DMSO (bottom disk) or DMSO alone (top disc).
Compound 2f inhibited FTase activity in vivo. […] Both effects are consistent with CnFTase being the target of Compound 2f, as expected.
Microscopy. […] A drug-free control sample contained 1% DMSO. Ras1 localization in a ram1Δ mutant strain was determined in a similar manner: a ram1Δ mutant and wild-type strain, each expressing mCherry-Ras1 under a constitutive promoter (CBN121 and SKE17) were incubated overnight in YPD medium at 30° C., diluted to OD600 0.1 in YPD, then incubated for 24 hours at 37° C. All cells were visualized and imaged by fluorescent microscopy at 1000× magnification using a Zeiss Imager A1 microscope and Zeiss Axio-Cam MRM digital camera. […]

[4] = test system: C. neoformans strain over-expressing CnFTase (pGAL7-RAM1); assay: Disc diffusion assay with galactose-inducible RAM1 over-expression; format: cell-based, Cryptococcus neoformans; settings: galactose induced; discs with 10 μL of 20 mM
Experimental: as §1
Molecular Biology. […] To induce C. neoformans mating, strains of opposite mating types were co-cultured on MS medium at 25° C. for seven days (Murashige, T, et al., Physiol Plantarum, 1962, 15, 473-497). A C. neoformans strain with a galactose-inducible RAM1 allele (CBN482) was similarly created with primers designed to create an overlap construct comprising the C. neoformans RAM1 5′ sequence-neomycin resistance cassette-GAL7 promoter-RAM1 coding sequence (FIG. 9) to precisely replace the RAM1 promoter with the GAL7 galactose inducible when introduced into the H99 genome by biolistic transformation.
Disc diffusion assay. […]

C. neoformans [5] = assay: Minimum inhibitory concentration (MIC): disc diffusion and broth microdilution; settings: Cryptococcus neoformans
Experimental: Antifungal activity was determined by measuring minimum inhibitory concentrations (MIC) of C. neoformans by two methods: a solid medium disc diffusion assay and broth microdilution assay.
Disc diffusion assay. Overnight cultures of C. neoformans (about 18 hours) were normalized to OD600 0.6, diluted 1/10, and 200 μL of each sample were spread onto either a YPD or YPGal (yeast extract-peptone medium with 3% galactose) plate using sterile glass beads. After drying, 10 μL of compound or solvent control (DMSO) was added to sterile 6 mm filter discs on each plate. Plates were incubated for 48 hours at 37° C.
Minimum inhibitory concentration (MIC) assays. C. neoformans: Overnight cultures (˜18 h) of C. neoformans strains incubated in YPD medium were diluted to 500 cells/ml in RPMI medium buffered with MOPS. Cells were aliquoted (200 μL/well) in black-wall, clear-bottom 96-wells plates (Greiner). Compound stock solutions in DMSO ranged from 9 μM to 20 mM, and added to 200 μL cell suspension aliquoted in 96-well plates. Final aqueous concentrations ranged from 200 μM to 0.09 μM, limiting DMSO to 1%. After 48-hr incubation at 37° C. or 30° C. for 48 h, 10% AlamarBlue (BioRad) was added. The end-point fluorescence intensity of reduced AlamarBlue was measured using a fluorescence plate reader (FLUORStar Optima plate reader) at the time point the indicator turned from blue to pink in healthy control cells.^51 Assays were performed in duplicate.

[6] = test system: Schizosaccharomyces pombe; assay: S. pombe MIC assay (efflux effects); settings: for MIC: Schizosaccharomyces pombe
C. neoformans biofilms = assay: Biofilm inhibition; format: cell-based, Cryptococcus neoformans
C. neoformans [7] = settings: Hast et al. 2011; cited from earlier work
[8] = test system: C. neoformans FTase (CnFTase); settings: Hast et al. 2011; cited from earlier work

Sequence of CnFTase (J9VSJ6 entry or part of it): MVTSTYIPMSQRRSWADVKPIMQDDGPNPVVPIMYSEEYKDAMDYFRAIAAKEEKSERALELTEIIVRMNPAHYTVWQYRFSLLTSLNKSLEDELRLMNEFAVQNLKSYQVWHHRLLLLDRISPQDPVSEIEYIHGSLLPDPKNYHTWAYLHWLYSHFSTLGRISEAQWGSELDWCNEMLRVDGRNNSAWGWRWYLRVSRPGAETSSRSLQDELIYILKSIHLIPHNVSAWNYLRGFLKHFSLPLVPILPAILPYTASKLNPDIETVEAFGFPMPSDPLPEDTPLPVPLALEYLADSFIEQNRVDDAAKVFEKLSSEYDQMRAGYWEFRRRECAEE
Sequence of CnFTase (T2BPA1 entry or part of it): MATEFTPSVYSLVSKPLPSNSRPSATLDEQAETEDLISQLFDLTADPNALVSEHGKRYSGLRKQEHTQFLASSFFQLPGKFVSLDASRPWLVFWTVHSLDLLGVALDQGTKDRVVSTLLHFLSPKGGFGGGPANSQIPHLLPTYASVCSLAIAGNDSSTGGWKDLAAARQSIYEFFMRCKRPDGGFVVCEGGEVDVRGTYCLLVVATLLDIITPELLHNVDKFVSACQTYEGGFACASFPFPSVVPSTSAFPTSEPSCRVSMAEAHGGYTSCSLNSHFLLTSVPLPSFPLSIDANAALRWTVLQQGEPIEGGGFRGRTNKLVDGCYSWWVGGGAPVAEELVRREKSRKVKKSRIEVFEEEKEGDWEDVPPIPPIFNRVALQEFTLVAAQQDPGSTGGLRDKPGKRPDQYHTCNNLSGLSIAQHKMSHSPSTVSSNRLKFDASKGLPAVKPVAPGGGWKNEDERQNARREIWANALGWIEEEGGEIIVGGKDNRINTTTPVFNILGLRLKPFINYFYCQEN
Sequence of mammalian FTase (P49356 whole entry, one chain of several): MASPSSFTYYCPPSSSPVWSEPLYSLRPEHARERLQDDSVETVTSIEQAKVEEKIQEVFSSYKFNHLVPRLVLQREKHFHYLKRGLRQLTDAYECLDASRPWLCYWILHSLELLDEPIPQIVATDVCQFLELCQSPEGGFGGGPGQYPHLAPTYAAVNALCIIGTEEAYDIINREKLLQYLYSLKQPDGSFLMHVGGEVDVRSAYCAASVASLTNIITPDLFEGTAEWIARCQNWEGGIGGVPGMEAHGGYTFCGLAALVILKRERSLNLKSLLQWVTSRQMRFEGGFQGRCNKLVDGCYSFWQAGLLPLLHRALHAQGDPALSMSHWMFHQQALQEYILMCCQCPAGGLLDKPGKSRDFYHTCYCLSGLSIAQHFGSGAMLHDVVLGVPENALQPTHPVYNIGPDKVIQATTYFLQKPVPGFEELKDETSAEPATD
Sequence of CnFTase (C. neoformans farnesyl transferase, α/β heterodimer) (J9VSJ6 entry or part of it): as the sequence (J9VSJ6 entry or part of it) above
Sequence of CnFTase (C. neoformans farnesyl transferase, α/β heterodimer) (T2BPA1 entry or part of it): as the sequence (T2BPA1 entry or part of it) above

Row | SMILES | improvement of competitive affinity in the H state (CnFTase; H state vs L state) | competitive affinity better than the uncompetitive value (CnFTase; H state, 10 mM phosphate) | Ki (CnFTase; HKU, uncompetitive inhibitor affinity (dissociation constant), H state, 10 mM phosphate (H state)) | Ki (CnFTase; LKU, uncompetitive inhibitor affinity (dissociation constant), L state, absence of phosphate (L state)) | Ki (CnFTase; read-out: HKC, competitive inhibitor affinity (dissociation constant), H state, 10 mM phosphate (H state)) | Ki (CnFTase; read-out: LKC, competitive inhibitor affinity (dissociation constant), L state, absence of phosphate (L state)) | inhibition mode (CnFTase; with respect to FPP) | MIC [1] | IC50 [2] | IC50 on mammalian FTase, worse than on the fungal enzyme (mammalian FTase) | Gfp-Ras1 localization [3] | effect of CnFTase (Ram1) over-expression on antifungal activity [4] | MIC (C. neoformans [5]) | MIC improvement in efflux-defective strain ([6]; MJ-1682 vs wild-type) | MIC ([6]; efflux-defective strain MJ-1682) | MIC ([6]; wild-type S. pombe) | biofilm inhibition (C. neoformans biofilms) | antifungal activity (C. neoformans [7]) | inhibition of C. neoformans FTase (CnFTase) [8]
1 | CCCC[C@H]1CN(c2cccc(OC(F)(F)F)c2)C(=O)CN1Cc1cncn1Cc1ccc(Br)cc1 [Compound 2f, (S)-4-((1-(4-Bromobenzyl)-1H-imidazol-5-yl)methyl)-5-butyl-1-(3-(trifluoromethoxy)phenyl)piperazin-2-one] | ~100 fold | ~170 fold | 0.5 µM | 0.75 µM | 0.003 µM | 0.32 µM | mixture of two binding modes: uncompetitive like Compound 2q, and a competitive mode that displaces FPP | 200 µM (≈ 113 µg/mL) | 0.19 ± 0.06 µM | about 30 fold | remains in the cytoplasm; also recorded: does not localize to the plasma membrane | negates 2f antifungal activity; also recorded: negated antifungal activity | 3 to 6 µM (≈ 1.7 to 3.39 µg/mL) | eight-fold | 1.5 µM (≈ 0.848 µg/mL) | 12.5 µM (≈ 7.07 µg/mL) | inhibits C. neoformans biofilms |  | 
2 | N#Cc1ccc(Cn2cncc2CN2CCN(c3cccc(Cl)c3)C(=O)C2)cc1 [L-778,123] |  |  |  |  |  |  |  |  |  |  |  |  |  |  |  |  |  | did not have antifungal activity | modest inhibition
